{"source": "patent US9278996B2", "about": "“Dolastatin-10 derivative, method of producing the same and anticancer drug composition containing the same” (CELLTRION, INC., priority 2012, dated 2016)", "assay_type_in_all_cases": "cell-based", "key": {"[1]": {"test_system": "breast cancer (BT-474)", "assay": "Anticancer activity assay (WST-8 cell growth), BT-474", "conditions": "Homo sapiens, read-out: IC50 (nM) BT-474", "summary_of_the_method": "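Cells seeded at 2˜3×10^3 per well and grown with compound at 37° C, 5% CO2 for 4 days. Monolayer growth read with WST-8; IC50 taken as concentration giving 50% of control OD.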"}, "[2]": {"test_system": "human epithelial cancer (A-431)", "assay": "Anticancer activity assay (WST-8 cell growth), A-431", "experimental": "(§1) The compounds of the present invention were assayed for inhibitory activity against 7 cancer cell lines as breast cancer (BT-474), human epithelial cancer (A-431), non-small cell lung cancer (NCI-H460), colon cancer (HT-29), colon cancer (SW-620), breast cancer (MDA-MB-231) and breast cancer (MCF-7).\n(§2) Briefly, a suspension of each cancer cell line was serially diluted, and plated at a density of 2˜3×10^3 cells/well into 96-well microplates, followed by incubation at 37° C. for 4 day in a 5% CO2 atmosphere. Cell growth in a monolayer was measured using WST-8 reagemt (Dojindo, Japan).\n(§3) IC50 values of the compounds against the cancer cell lines were calculated as compound concentrations at which the cells were grown by 50% OD of the control."}, "[3]": {"test_system": "non-small cell lung cancer (NCI-H460)", "assay": "Anticancer activity assay (WST-8 cell growth), NCI-H460", "conditions": "read-out: IC50 (nM) NCI-H460", "experimental": "as §1, §2, §3"}, "[4]": {"test_system": "colon cancer (SW-620)", "assay": "Anticancer activity assay (WST-8 cell growth), SW-620", "conditions": "read-out: IC50 (nM) SW-620", "experimental": "as §1, §2, §3"}, "[5]": {"test_system": "breast cancer (MCF-7)", "assay": "Anticancer activity assay (WST-8 cell growth), MCF-7", "conditions": "read-out: IC50 (nM) MCF-7", "experimental": "as §1, §2, §3"}, "[6]": {"test_system": "colon cancer (HT-29)", "assay": "Anticancer activity assay (WST-8 cell growth), HT-29", "conditions": "read-out: IC50 (nM) HT-29", "experimental": "as §1, §2, §3"}, "[7]": {"test_system": "breast cancer (MDA-MB-231)", "assay": "Anticancer activity assay (WST-8 cell growth), MDA-MB-231", "conditions": "read-out: IC50 (nM) MDA-MB-231", "experimental": "as §1, §2, §3"}, "[8]": {"conditions": "A-431, 96 h, read-out: IC50 (nM) A-431"}}, "note": "Read-outs that look alike come from different tables or passages of the source."}
{"molecule": "CC[C@H](C)[C@@H]([C@@H](CC(=O)N1C[C@H](OC)C[C@@H]1[C@H](OC)[C@@H](C)C(=O)NCCc1ccc(F)cc1)OC)N(C)C(=O)[C@@H](NC(=O)[C@@H](NC)C(C)C)C(C)C", "note": "[Compound I-3, (S)—N-((3R,4S,5S)-1-((2R,4R)-2-((1R,2R)-3-((4-fluorophenethyl)amino)-1-methoxy-2-methyl-3-oxopropyl)-4-methoxypyrrolidin-1-yl)-3-methoxy-5-methyl-1-oxoheptan-4-yl)-N,3-dimethyl-2-((S)-3-methyl-2-(methylamino)butaneamido)butanamide]", "values": [{"measurement": "IC50", "setting": "[1]; BT-474, 96 h", "result": 1.1, "unit": "nM"}, {"measurement": "IC50", "setting": "[2]; [8]", "result": 37.9, "unit": "nM"}]}
{"molecule": "CC[C@H](C)[C@@H]([C@@H](CC(=O)N1C[C@H](OC)C[C@H]1[C@H](OC)[C@@H](C)C(=O)NCC(=O)c1ccc(OC)cc1)OC)N(C)C(=O)[C@@H](NC(=O)[C@@H](NC)C(C)C)C(C)C", "note": "(stereo in doubt) [Compound I-5, (2S)—N-((3R,4S)-3-methoxy-1-((2R,4R)-4-methoxy-2-((1R,2R)-1-methoxy-3-((2-(4-methoxyphenyl)-2-oxoethyl)amino)-2-methyl-3-oxopropyl)pyrrolidin-1-yl)-5-methyl-1-oxoheptan-4-yl)-N,3-dimethyl-2-((S)-3-methyl-2-(methylamino)butaneamido)butanamide]", "values": [{"measurement": "IC50", "setting": "[1]; BT-474, 96 h", "result": 0.53, "unit": "nM"}, {"measurement": "IC50", "setting": "[2]; [8]", "result": 61.2, "unit": "nM"}]}
{"molecule": "CC[C@H](C)[C@@H]([C@@H](CC(=O)N1C[C@H](O)C[C@@H]1[C@H](OC)[C@@H](C)C(=O)NCCc1ccccc1)OC)N(C)C(=O)[C@@H](NC(=O)[C@H](C(C)C)N(C)C)C(C)C", "note": "[Compound I-8, (S)-2-((S)-2-(dimethylamino)-3-methylbutaneamido)-N-((3R,4S,5S)-1-((2R,4R)-4-hydroxy-2-((1R,2R)-1-methoxy-2-methyl-3-oxo-3-(phenethylamino)propyl)pyrrolidin-1-yl)-3-methoxy-5-methyl-1-oxoheptan-4-yl)-N,3-dimethylbutanamide]", "values": [{"measurement": "IC50", "setting": "[1]; BT-474, 96 h", "result": 0.68, "unit": "nM"}, {"measurement": "IC50", "setting": "[3]; Homo sapiens, NCI-H460, 96 h", "result": 1.5, "unit": "nM"}, {"measurement": "IC50", "setting": "[4]; Homo sapiens, SW-620, 96 h", "result": 2.9, "unit": "nM"}, {"measurement": "IC50", "setting": "[5]; Homo sapiens, MCF7, 96 h", "result": 27, "unit": "nM"}]}
{"molecule": "CC[C@H](C)[C@@H]([C@@H](CC(=O)N1C[C@H](OC)C[C@H]1[C@H](OC)[C@@H](C)C(=O)NCC(=O)c1ccccc1)OC)N(C)C(=O)[C@@H](NC(=O)[C@@H](NC)C(C)C)C(C)C", "note": "[Compound I-34]", "values": [{"measurement": "IC50", "setting": "[1]; BT-474, 96 h", "result": 9.71, "unit": "nM"}, {"measurement": "IC50", "setting": "[3]; Homo sapiens, NCI-H460, 96 h", "result": 10.9, "unit": "nM"}]}
{"molecule": "CC(=O)O[C@H]1C(=O)[C@@]2(C)[C@H]([C@H](OC(=O)c3ccccc3)[C@]3(O)C[C@H](OC(=O)[C@H](O)[C@@H](NC(=O)c4ccccc4)c4ccccc4)C(C)=C1C3(C)C)[C@]1(OC(C)=O)CO[C@@H]1C[C@@H]2O", "note": "[Paclitaxel, reference compound]", "values": [{"measurement": "IC50", "setting": "[1]; 96 h, BT-474 cells, 4 day incubation, WST-8", "result": 14.4, "unit": "nM"}, {"measurement": "IC50", "setting": "[2]; 96 h, A-431 cells, 4 day incubation, WST-8, read-out: IC50 (nM) A-431", "result": 442, "unit": "nM"}, {"measurement": "IC50", "setting": "[3]; Homo sapiens, 96 h, NCI-H460 cells, 4 day incubation, WST-8", "result": 26.8, "unit": "nM"}, {"measurement": "IC50", "setting": "[6]; Homo sapiens, 96 h, HT-29 cells, 4 day incubation, WST-8", "result": 19.5, "unit": "nM"}, {"measurement": "IC50", "setting": "[4]; Homo sapiens, 96 h, SW-620 cells, 4 day incubation, WST-8", "result": 26.8, "unit": "nM"}, {"measurement": "IC50", "setting": "[7]; Homo sapiens, 96 h, MDA-MB-231 cells, 4 day incubation, WST-8", "result": 90, "unit": "nM"}, {"measurement": "IC50", "setting": "[5]; Homo sapiens, MCF7, 96 h, MCF-7 cells, 4 day incubation, WST-8", "result": 27.1, "unit": "nM"}]}
{"molecule": "CC[C@H](C)[C@@H]([C@@H](CC(=O)N1CC(=O)C[C@@H]1[C@H](OC)[C@@H](C)C(=O)NCCc1ccccc1)OC)N(C)C(=O)[C@@H](NC(=O)[C@H](C(C)C)N(C)C)C(C)C", "note": "[Compound I-9, (S)-2-((S)-2-(dimethylamino)-3-methylbutaneamido)-N-((3R,4S,5S)-3-methoxy-1-((R)-2-((1R,2R)-1-methoxy-2-methyl-3-oxo-3-(phenethylamino)propyl)-4-oxopyrrolidin-1-yl)-5-methyl-1-oxoheptan-4-yl)-N,3-dimethylbutanamide]", "values": [{"measurement": "IC50", "setting": "[1]; BT-474, 96 h", "result": 5.23, "unit": "nM"}, {"measurement": "IC50", "setting": "[3]; Homo sapiens, NCI-H460, 96 h", "result": 10.9, "unit": "nM"}, {"measurement": "IC50", "setting": "[4]; Homo sapiens, SW-620, 96 h", "result": 27.7, "unit": "nM"}, {"measurement": "IC50", "setting": "[5]; Homo sapiens, MCF7, 96 h", "result": 27, "unit": "nM"}]}
{"molecule": "CC[C@H](C)[C@@H]([C@@H](CC(=O)N1C[C@H](OC)C[C@H]1[C@H](OC)[C@@H](C)C(=O)NCC(O)c1ccccc1)OC)N(C)C(=O)[C@@H](NC(=O)[C@@H](NC)C(C)C)C(C)C", "note": "(stereo partly drawn) [Compound I-35, (2S)—N-((3R,4S)-1-((2S,4R)-2-((1R,2R)-3-(2-(2-hydroxy-2-phenylethyl)amino)-1-methoxy-2-methyl-3-oxopropyl)-4-methoxypyrrolidin-1-yl)-3-methoxy-5-methyl-1-oxoheptan-4-yl)-N,3-dimethyl-2-((S)-3-methyl-2-(methylamino)butaneamido)butanamide]", "values": [{"measurement": "IC50", "setting": "[1]; BT-474, 96 h", "result": 0.23, "unit": "nM"}, {"measurement": "IC50", "setting": "[3]; Homo sapiens, NCI-H460, 96 h", "result": 1.5, "unit": "nM"}, {"measurement": "IC50", "setting": "[6]; Homo sapiens, HT-29, 96 h", "result": 4.2, "unit": "nM"}, {"measurement": "IC50", "setting": "[4]; Homo sapiens, SW-620, 96 h", "result": 2.1, "unit": "nM"}]}
{"molecule": "COc1cccc2c1C(=O)c1c(O)c3c(c(O)c1C2=O)C[C@@](O)(C(=O)CO)C[C@@H]3O[C@H]1C[C@H](N)[C@H](O)[C@H](C)O1", "note": "[Doxorubcin, reference compound]", "values": [{"measurement": "IC50", "setting": "[3]; NCI-H460 cells, 4 day incubation, WST-8", "result": 150, "unit": "nM"}, {"measurement": "IC50", "setting": "[6]; HT-29 cells, 4 day incubation, WST-8", "result": 1.81, "unit": "nM"}, {"measurement": "IC50", "setting": "[4]; SW-620 cells, 4 day incubation, WST-8", "result": 290, "unit": "nM"}, {"measurement": "IC50", "setting": "[7]; MDA-MB-231 cells, 4 day incubation, WST-8", "result": 850, "unit": "nM"}, {"measurement": "IC50", "setting": "[5]; MCF-7 cells, 4 day incubation, WST-8", "result": 460, "unit": "nM"}]}
{"molecule": "CC[C@H](C)[C@@H]([C@@H](CC(=O)N1C[C@H](OC)C[C@@H]1[C@H](OC)[C@@H](C)C(=O)N[C@@H](C)C(=O)c1c(F)cccc1F)OC)N(C)C(=O)[C@@H](NC(=O)[C@@H](NC)C(C)C)C(C)C", "note": "[Compound I-17, (S)—N-((3R,4S,5S)-1-((2R,4R)-2-((1R,2R)-3-(((S)-1-(2,6-difluorophenyl)-1-oxopropan-2-yl)amino)-1-methoxy-2-methyl-3-oxopropyl)-4-methoxypyrrolidin-1-yl)-3-methoxy-5-methyl-1-oxoheptan-4-yl)-N,3-dimethyl-2-((S)-3-methyl-2-(methylamino)butaneamido)butanamide]", "values": [{"measurement": "IC50", "setting": "[1]; BT-474, 96 h", "result": 0.25, "unit": "nM"}]}
{"molecule": "CC[C@H](C)[C@@H]([C@@H](CC(=O)N1C[C@@H](O)C[C@H]1[C@H](OC)[C@@H](C)C(=O)N[C@@H](C)C(=O)c1ccc(F)cc1)OC)N(C)C(=O)[C@@H](NC(=O)[C@H](C(C)C)N(C)C)C(C)C", "note": "[Compound I-41, (2S)-2-((S)-2-(dimethylamino)-3-methylbutaneamido)-N-((3R,4S)-1-((2S,4S)-2-((1R,2R)-3-(((S)-1-(4-fluorophenyl)-1-oxopropan-2-yl)amino)-1-methoxy-2-methyl-3-oxopropyl)-4-hydroxypyrrolidin-1-yl)-3-methoxy-5-methyl-1-oxoheptan-4-yl)-N,3-dimethylbutanamide]", "values": [{"measurement": "IC50", "setting": "[1]; BT-474, 96 h", "result": 1.83, "unit": "nM"}]}
{"molecule": "CC[C@H](C)[C@@H]([C@@H](CC(=O)N1C[C@H](OC)CC1[C@H](OC)[C@@H](C)C(=O)NCCc1cc(F)c(Cl)cc1Cl)OC)N(C)C(=O)[C@@H](NC(=O)[C@@H](NC)C(C)C)C(C)C", "note": "(stereo partly shown) [Compound I-4]", "values": [{"measurement": "IC50", "setting": "[1]; BT-474, 96 h", "result": 2.44, "unit": "nM"}, {"measurement": "IC50", "setting": "[2]; [8]", "result": 21.1, "unit": "nM"}]}
{"molecule": "CC[C@H](C)[C@@H]([C@@H](CC(=O)N1C[C@@H](OC)C[C@H]1[C@H](OC)[C@@H](C)C(=O)NCCc1ccccc1)OC)N(C)C(=O)[C@@H](NC(=O)[C@@H](NC)C(C)C)C(C)C", "note": "[Compound I-33, (2S)—N-((3R,4S)-3-methoxy-1-((2S,45)-4-methoxy-2-((1R,2R)-1-methoxy-2-methyl-3-oxo-3-(phenethylamino)propyl)pyrrolidin-1-yl)-5-methyl-1-oxoheptan-4-yl)-N,3-dimethyl-2-((S)-3-methyl-2-(methylamino)butaneamido)butanamide]", "values": [{"measurement": "IC50", "setting": "[1]; BT-474, 96 h", "result": 0.68, "unit": "nM"}, {"measurement": "IC50", "setting": "[3]; Homo sapiens, NCI-H460, 96 h", "result": 9.4, "unit": "nM"}, {"measurement": "IC50", "setting": "[6]; Homo sapiens, HT-29, 96 h", "result": 2.82, "unit": "nM"}, {"measurement": "IC50", "setting": "[4]; Homo sapiens, SW-620, 96 h", "result": 5.49, "unit": "nM"}, {"measurement": "IC50", "setting": "[7]; Homo sapiens, MDA-MB-231, 96 h", "result": 2.23, "unit": "nM"}, {"measurement": "IC50", "setting": "[5]; Homo sapiens, MCF7, 96 h", "result": 1.82, "unit": "nM"}]}
